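Each compound was tested at five concentrations against cells in 96-well plates for 48 hours. Here, GI50 denotes the concentration required for 50% inhibition of growth.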 Calls of active or inactive are those of the source. Cut-off read from the data, not from the text of the source: active = GI50 up to about 1.1 µM and inactive = higher.
Experiments:
Test in all cases: DTP human tumour cell line panel, 48 h
K562 = tested on: K562
HOP-18 = tested on: HOP-18
M19-MEL = tested on: M19-MEL
EKVX = tested on: EKVX
DMS-114 = tested on: DMS-114
DLD-1 = tested on: DLD-1
HL-60 = tested on: HL-60
SF-295 = tested on: SF-295
RXF 393 = tested on: RXF 393
DMS-273 = tested on: DMS-273
U-251 = tested on: U-251
ACHN = tested on: ACHN
LOX IMVI = tested on: LOX IMVI
A498 = tested on: A498
MOLT-4 = tested on: MOLT-4
SK-MEL-28 = tested on: SK-MEL-28
HOP-92 = tested on: HOP-92
HT-29 = tested on: HT-29
IGROV-1 = tested on: IGROV-1
TK-10 = tested on: TK-10
CCRF-CEM = tested on: CCRF-CEM
786-0 = tested on: 786-0
SF-268 = tested on: SF-268
CAKI-1 = tested on: CAKI-1
SNB-19 = tested on: SNB-19
SF-539 = tested on: SF-539
OVCAR-3 = tested on: OVCAR-3
SK-MEL-2 = tested on: SK-MEL-2
Malme-3M = tested on: Malme-3M
UACC-62 = tested on: UACC-62
COLO 205 = tested on: COLO 205
SK-OV-3 = tested on: SK-OV-3
SN12C = tested on: SN12C
SNB-75 = tested on: SNB-75
NCI-H522 = tested on: NCI-H522
NCI-H23 = tested on: NCI-H23
SW-620 = tested on: SW-620
OVCAR-5 = tested on: OVCAR-5
RPMI-8226 = tested on: RPMI-8226
KM12 = tested on: KM12
UACC-257 = tested on: UACC-257
KM-20L2 = tested on: KM-20L2
NCI-H460 = tested on: NCI-H460
UO-31 = tested on: UO-31
SK-MEL-5 = tested on: SK-MEL-5
RXF 631 = tested on: RXF 631
HOP-62 = tested on: HOP-62
OVCAR-8 = tested on: OVCAR-8
A549 = tested on: A549
HCC 2998 = tested on: HCC 2998
HCT-15 = tested on: HCT-15
HCT-116 = tested on: HCT-116
OVCAR-4 = tested on: OVCAR-4
LXFL 529 = tested on: LXFL 529
SNB-78 = tested on: SNB-78
NCI-H226 = tested on: NCI-H226
M14 = tested on: M14
SR = tested on: SR

Measured: GI50

Cc1nc(Nc2ccc([N+](=O)[O-])cc2)sc1C(=O)/C=C/c1ccc(N(C)C)cc1
44.6 µM: HCT-15
inactive: K562 37.8 µM | HOP-18 > 100 µM | M19-MEL > 100 µM | EKVX 52.5 µM | DMS-114 59.4 µM | DLD-1 60.5 µM | HL-60 76.7 µM | SF-295 40.1 µM | RXF 393 30.4 µM | DMS-273 77.3 µM | U-251 > 100 µM | ACHN 48.3 µM | LOX IMVI 64.7 µM | A498 49.2 µM | MOLT-4 35.9 µM | SK-MEL-28 > 100 µM | HOP-92 > 100 µM | HT-29 > 100 µM | IGROV-1 > 100 µM | TK-10 77.4 µM | CCRF-CEM 60.1 µM | 786-0 > 100 µM | SF-268 > 100 µM | CAKI-1 > 100 µM | SNB-19 > 100 µM | SF-539 88.9 µM | OVCAR-3 > 100 µM | SK-MEL-2 64.3 µM | Malme-3M > 100 µM | UACC-62 > 100 µM | COLO 205 > 100 µM | SK-OV-3 > 100 µM | SN12C > 100 µM | SNB-75 > 100 µM | NCI-H522 19.4 µM | NCI-H23 > 100 µM | SW-620 > 100 µM | OVCAR-5 > 100 µM | RPMI-8226 54.1 µM | KM12 57.8 µM | UACC-257 81.3 µM | KM-20L2 73.1 µM | NCI-H460 65.2 µM | UO-31 36.8 µM | SK-MEL-5 50.5 µM | RXF 631 > 100 µM | HOP-62 > 100 µM | OVCAR-8 73.3 µM | A549 40.7 µM | HCC 2998 78.3 µM

CC(=O)OC1=C2CC3(C)OC(=O)CC(C)(C)C3=CC=C2C=C(C(C)C)C1=O (stereo unspecified)
inactive: HOP-18 1.16 µM | EKVX 1.89 µM | SF-295 1.66 µM | U-251 1.6 µM | A498 1.57 µM | TK-10 1.21 µM | CAKI-1 1.56 µM | NCI-H226 1.74 µM | SNB-19 1.83 µM | OVCAR-3 1.13 µM | SK-OV-3 2.09 µM | KM12 1.15 µM | KM-20L2 1.62 µM | NCI-H460 1.51 µM | UO-31 1.74 µM | HOP-62 11.4 µM | A549 1.9 µM
0.179 µM: HCT-15
active: K562 0.307 µM | M19-MEL 0.526 µM | DMS-114 0.366 µM | DLD-1 0.203 µM | HCT-116 0.41 µM | HL-60 0.28 µM | RXF 393 0.184 µM | DMS-273 0.916 µM | OVCAR-4 0.299 µM | ACHN 0.518 µM | LOX IMVI 0.201 µM | LXFL 529 0.157 µM | MOLT-4 0.294 µM | SK-MEL-28 0.456 µM | HOP-92 0.207 µM | HT-29 1.07 µM | IGROV-1 0.845 µM | CCRF-CEM 0.316 µM | 786-0 0.203 µM | SF-268 1.05 µM | SNB-78 0.282 µM | M14 0.334 µM | SK-MEL-2 0.459 µM | Malme-3M 0.356 µM | UACC-62 0.268 µM | COLO 205 0.631 µM | SN12C 0.684 µM | SNB-75 0.71 µM | NCI-H522 0.189 µM | NCI-H23 0.42 µM | SW-620 0.316 µM | OVCAR-5 0.912 µM | SR 0.278 µM | RPMI-8226 0.22 µM | UACC-257 0.49 µM | SK-MEL-5 0.826 µM | RXF 631 0.723 µM | OVCAR-8 0.288 µM | HCC 2998 0.877 µM

CC1=C(C(=O)NCc2ccccc2)C(c2ccccc2C)C(C(=O)NCc2ccccc2)=C(C)N1
inactive: K562 38.5 µM | HOP-18 > 53 µM | M19-MEL 33 µM | EKVX 58.7 µM | DMS-114 29.6 µM | DLD-1 20.9 µM | HCT-116 19 µM | HL-60 21 µM | SF-295 29.7 µM | RXF 393 23.7 µM | DMS-273 27.5 µM | U-251 24.5 µM | OVCAR-4 27.2 µM | ACHN 20 µM | LOX IMVI 17.7 µM | A498 44.3 µM | LXFL 529 29.5 µM | MOLT-4 27.1 µM | SK-MEL-28 27.6 µM | HOP-92 39 µM | HT-29 27.2 µM | IGROV-1 31.7 µM | TK-10 41.7 µM | CCRF-CEM 29.6 µM | 786-0 25.1 µM | SF-268 22.8 µM | CAKI-1 50.8 µM | SNB-78 33.6 µM | NCI-H226 30.7 µM | SNB-19 35.6 µM | SF-539 24.6 µM | M14 20.4 µM | OVCAR-3 23.5 µM | SK-MEL-2 18.5 µM | Malme-3M 72.6 µM | UACC-62 17.2 µM | COLO 205 38.8 µM | SK-OV-3 91.2 µM | SN12C 25.5 µM | SNB-75 > 43.8 µM | NCI-H522 28.4 µM | NCI-H23 33.1 µM | SW-620 38.8 µM | OVCAR-5 35.9 µM | SR 24.5 µM | RPMI-8226 29.9 µM | KM12 24.8 µM | UACC-257 10.7 µM | KM-20L2 28.4 µM | NCI-H460 19.5 µM | UO-31 42.8 µM | SK-MEL-5 35.5 µM | RXF 631 42.1 µM | HOP-62 29.9 µM | OVCAR-8 17.9 µM | A549 49.8 µM | HCC 2998 28.6 µM
17.7 µM: HCT-15

Source: ChEMBL document CHEMBL1201862, “PubChem BioAssay data set” (2004)
